For 3 molecules, IC50 results are on record in BindingDB's records for patent US20250122166 (ST. JUDE CHILDREN''S RESEARCH HOSPITAL, INC., 2025).

For orientation: IC50 means the concentration that gives 50% inhibition. A lower IC50 goes with inhibition by little substance.

For this assay, the target named is Protein cereblon (Homo sapiens, UniProt Q96SW2). The assay is described as follows: Crbn Fluorescence Polarization Assay. On the procedure:
In this competitive fluorescent polarization assay Cy5 conjugated lenalidomide analog (Cy5—O-Len)1 was used as a fluorescent probe. 6XHis-CRBN-DDB1 protein (200 nM) and Cy5—O-Len probe (30 nM) were combined in 20 mM HEPES pH 7, 150 mM NaCl, 0.005% Tween-20 assay buffer. 20 μL of this assay cocktail was dispensed into wells of Corning 3821 black 384-well plates. Compounds were transferred to the assay plate from a dose-response plate using a Pintool on a Biomek FXP Laboratory Automation Workstation (Beckman Coulter). The plates were incubated in the dark for 1 hour at room temperature and then read on an Envision plate reader (PerkinElmer, Massachusetts, USA). IC50 values were determined using a proprietary software RISE (Robust Investigation of Screening Experiments), developed in house on the Pipeline Pilot platform (Biovia, v. 17.2.0). Data represent the mean of three independent determinations.
For the molecule `O=C1CCC(N2Cc3c(CNC(=O)c4ccc(Cl)c(C(F)(F)F)c4)cccc3C2=O)C(=O)N1` (stereo not drawn) [US20250122166, Compound 21], the IC50 is less than 1000 nM.

`O=C1CCC(N2Cc3c(CNC(=O)c4ccc(Cl)cc4Cl)cccc3C2=O)C(=O)N1` (stereo not drawn) [US20250122166, Compound 28] yielded an IC50 of less than 1000 nM.

Turning to `O=C1CCC(N2Cc3c(CNC(=O)c4ccc(Br)cc4)cccc3C2=O)C(=O)N1` (stereo not drawn) [US20250122166, Compound 18], the half-maximal inhibitory concentration (IC50) was less than 1000 nM.
